Reference: article PMC4234217 (ChemistryOpen, 2014)

How the values were obtained:
human NTS2 [1] = biological target: T1, human NTS2 (Homo sapiens, UniProt O95665); test: Radioligand binding at human NTS2 with [3H]NT; settings: SEM
human NTS2 [2] = biological target: T1, human NTS2; settings: replacement of Tyr11 by alanine; ref [7]; cited from earlier work
human NTS1 = human NTS1 (Homo sapiens, UniProt P30989); settings: replacement of Tyr11 by alanine; ref [7]; cited from earlier work
human NTS1, sequence (P30989 whole entry): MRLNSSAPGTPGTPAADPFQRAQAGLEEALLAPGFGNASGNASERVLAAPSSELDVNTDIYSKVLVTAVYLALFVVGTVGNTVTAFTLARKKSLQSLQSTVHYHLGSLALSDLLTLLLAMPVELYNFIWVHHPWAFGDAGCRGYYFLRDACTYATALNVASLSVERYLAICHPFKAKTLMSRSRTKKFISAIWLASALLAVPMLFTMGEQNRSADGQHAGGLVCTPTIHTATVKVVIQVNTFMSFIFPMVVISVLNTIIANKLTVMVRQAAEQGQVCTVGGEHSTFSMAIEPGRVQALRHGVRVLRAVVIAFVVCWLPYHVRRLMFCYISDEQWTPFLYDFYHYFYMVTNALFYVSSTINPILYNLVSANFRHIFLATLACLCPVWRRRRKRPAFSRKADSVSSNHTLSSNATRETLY

T1 sequence (O95665 whole entry): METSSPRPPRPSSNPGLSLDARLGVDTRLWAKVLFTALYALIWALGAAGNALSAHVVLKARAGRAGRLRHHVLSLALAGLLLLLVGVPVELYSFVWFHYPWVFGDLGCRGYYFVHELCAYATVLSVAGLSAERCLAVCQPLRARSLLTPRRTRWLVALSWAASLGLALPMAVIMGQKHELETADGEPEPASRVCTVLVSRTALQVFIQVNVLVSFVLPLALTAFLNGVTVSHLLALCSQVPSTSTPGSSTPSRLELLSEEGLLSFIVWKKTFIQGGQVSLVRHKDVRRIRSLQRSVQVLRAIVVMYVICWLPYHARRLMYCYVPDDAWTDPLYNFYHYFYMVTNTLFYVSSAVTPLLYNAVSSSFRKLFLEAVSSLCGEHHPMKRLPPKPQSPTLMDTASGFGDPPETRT

Row | Molecule | Ki (human NTS2 [1]) | decrease of affinity towards NTS2 compared to NT(8–13) (human NTS2 [2]) | reduction of ligand affinity at NTS1 compared to NT(8–13) (human NTS1)
1 | CC[C@H](C)[C@H](NC(=O)CN(CCc1ccn2nccc2c1)C(=O)[C@@H]1CCCN1C(=O)[C@H](CCCNC(=N)N)NC(=O)[C@@H](N)CCCNC(=N)N)C(=O)N[C@@H](CC(C)C)C(=O)O [compound 3, [^11N-{5-(2-Aminoethyl)pyrazolo[1,5-a]pyridine}-Gly]NT(8–13)] | 520 ± 170 nM |  | 
2 | [^11Ala]NT(8–13) |  | 70 fold | 5400 fold
